Results published in ChEMBL document CHEMBL5584264 (Bioorg Med Chem Lett, 2024).
≈ marks a conversion by molar mass, not a printed value.

What was measured:
[1] = target: 5-hydroxytryptamine receptor 2B (Homo sapiens, UniProt P41595); test: Displacement of [3H]DTG from 5HT2B receptor (unknown origin) assessed as inhibition constant
[2] = tested on: RAW264.7; test: Antiinflammatory activity against LPS-induced mouse RAW264.7 cells assessed as reduction in nitrite level at 1 uM preincubated with compound for 1 hr followed by LPS-induction and measured after 24 hrs by Fluorometric Assay relative to control; assay type: functional; set-up: scale not given: the % may be the effect or the level left; conditions: time 25 hrs
[3] = tested on: RAW264.7; test: Antiinflammatory activity against LPS-induced mouse RAW264.7 cells assessed as reduction in IL-6 level at 1 uM preincubated with compound for 1 hr followed by LPS-induction and measured after 24 hrs by ELISA analysis relative to control; assay type: functional; set-up: scale not given: the % may be the effect or the level left; conditions: time 25 hrs
[4] = tested on: RAW264.7; test: Antiinflammatory activity against LPS-induced mouse RAW264.7 cells assessed as reduction in nitrite level at 10 uM preincubated with compound for 1 hr followed by LPS-induction and measured after 24 hrs by Fluorometric Assay relative to control; assay type: functional; set-up: scale not given: the % may be the effect or the level left; conditions: time 25 hrs
[5] = tested on: RAW264.7; test: Antiinflammatory activity against LPS-induced mouse RAW264.7 cells assessed as cell viability at 30 uM by celltiter-blue cell viability assay; assay type: functional; conditions: read-out: Activity
[6] = tested on: RAW264.7; test: Antiinflammatory activity against LPS-induced mouse RAW264.7 cells assessed as reduction in IL-6 level at 30 uM preincubated with compound for 1 hr followed by LPS-induction and measured after 24 hrs by ELISA analysis relative to control; assay type: functional; set-up: scale not given: the % may be the effect or the level left; conditions: time 25 hrs
[7] = tested on: RAW264.7; test: Antiinflammatory activity against LPS-induced mouse RAW264.7 cells assessed as reduction in IL-6 level at 10 uM preincubated with compound for 1 hr followed by LPS-induction and measured after 24 hrs by ELISA analysis relative to control; assay type: functional; set-up: scale not given: the % may be the effect or the level left; conditions: time 25 hrs
[8] = target: Protein cereblon/DNA damage-binding protein 1 (Homo sapiens) (UniProt Q96SW2+Q16531); test: Displacement of Cy5-tagged thalidomide-like probe from human CRBN/DDB1 complex by fluorescence polarization based CRBN binding assay; assay type: protein assay
Chain of Protein cereblon/DNA damage-binding protein 1 (Homo sapiens) (Q16531 2-1140 partner limits assumed): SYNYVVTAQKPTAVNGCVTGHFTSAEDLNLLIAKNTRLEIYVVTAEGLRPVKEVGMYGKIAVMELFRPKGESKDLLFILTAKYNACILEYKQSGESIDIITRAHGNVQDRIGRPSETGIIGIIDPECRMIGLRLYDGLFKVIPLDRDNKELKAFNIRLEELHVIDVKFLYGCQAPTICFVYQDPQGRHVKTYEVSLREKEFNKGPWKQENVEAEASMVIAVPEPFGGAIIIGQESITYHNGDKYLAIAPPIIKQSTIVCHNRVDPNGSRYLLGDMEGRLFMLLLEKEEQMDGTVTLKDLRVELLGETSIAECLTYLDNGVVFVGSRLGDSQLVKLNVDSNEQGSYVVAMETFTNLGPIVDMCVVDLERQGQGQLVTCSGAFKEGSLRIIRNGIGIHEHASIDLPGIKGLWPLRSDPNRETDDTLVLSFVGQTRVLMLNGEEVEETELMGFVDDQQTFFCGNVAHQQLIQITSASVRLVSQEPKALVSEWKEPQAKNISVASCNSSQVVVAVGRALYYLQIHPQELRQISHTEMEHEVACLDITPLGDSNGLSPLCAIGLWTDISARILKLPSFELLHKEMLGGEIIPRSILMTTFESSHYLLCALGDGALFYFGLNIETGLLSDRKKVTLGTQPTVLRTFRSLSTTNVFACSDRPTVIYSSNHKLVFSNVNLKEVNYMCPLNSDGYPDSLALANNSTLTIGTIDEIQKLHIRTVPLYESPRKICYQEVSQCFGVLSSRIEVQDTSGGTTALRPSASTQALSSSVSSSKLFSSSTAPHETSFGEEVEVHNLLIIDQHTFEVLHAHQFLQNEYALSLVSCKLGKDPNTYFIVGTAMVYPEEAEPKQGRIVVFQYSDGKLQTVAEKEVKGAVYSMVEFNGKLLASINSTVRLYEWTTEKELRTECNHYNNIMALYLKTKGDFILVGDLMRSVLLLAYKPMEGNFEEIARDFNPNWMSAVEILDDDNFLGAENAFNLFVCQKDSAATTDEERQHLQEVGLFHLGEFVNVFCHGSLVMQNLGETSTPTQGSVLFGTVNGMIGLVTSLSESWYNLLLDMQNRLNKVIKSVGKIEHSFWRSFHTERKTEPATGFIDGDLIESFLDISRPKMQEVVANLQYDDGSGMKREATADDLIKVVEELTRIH
Chain of Protein cereblon/DNA damage-binding protein 1 (Homo sapiens) (Q96SW2 whole entry): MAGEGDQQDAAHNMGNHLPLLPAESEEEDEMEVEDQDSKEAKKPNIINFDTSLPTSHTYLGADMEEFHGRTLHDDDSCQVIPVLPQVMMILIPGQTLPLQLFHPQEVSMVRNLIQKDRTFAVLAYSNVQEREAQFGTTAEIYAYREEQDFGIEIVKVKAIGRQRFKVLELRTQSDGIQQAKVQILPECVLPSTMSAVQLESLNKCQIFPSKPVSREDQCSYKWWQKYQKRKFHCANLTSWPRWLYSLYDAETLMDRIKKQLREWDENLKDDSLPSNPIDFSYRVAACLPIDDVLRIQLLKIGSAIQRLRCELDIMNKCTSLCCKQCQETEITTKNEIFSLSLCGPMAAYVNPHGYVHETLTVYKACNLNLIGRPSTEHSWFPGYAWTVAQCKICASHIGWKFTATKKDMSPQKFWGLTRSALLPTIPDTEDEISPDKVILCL

[9] = tested on: RAW264.7; test: Antiinflammatory activity against LPS-induced mouse RAW264.7 cells assessed as reduction in nitrite level preincubated with compound for 1 hr followed by LPS-induction and measured after 24 hrs by Fluorometric Assay; assay type: functional, cell-based; conditions: dose 1-30 µM, time 25.0 hrs
[10] = tested on: RAW264.7; test: Antiinflammatory activity against LPS-induced mouse RAW264.7 cells assessed as cell viability at 10 uM by celltiter-blue cell viability assay; assay type: functional; conditions: read-out: Activity
[11] = tested on: RAW264.7; test: Antiinflammatory activity against LPS-induced mouse RAW264.7 cells assessed as cell viability at 1 uM by celltiter-blue cell viability assay; assay type: functional; conditions: read-out: Activity
[12] = target: Sigma intracellular receptor 2 (Homo sapiens, UniProt Q5BJF2); test: Displacement of [3H]DTG from sigma-2 receptor (unknown origin) assessed as inhibition constant
Chain of Sigma intracellular receptor 2 (Q5BJF2 whole entry): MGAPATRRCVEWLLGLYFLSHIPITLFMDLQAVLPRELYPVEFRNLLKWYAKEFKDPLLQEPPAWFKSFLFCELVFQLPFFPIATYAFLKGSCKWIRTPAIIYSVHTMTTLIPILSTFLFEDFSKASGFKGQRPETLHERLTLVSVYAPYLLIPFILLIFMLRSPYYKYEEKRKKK

[13] = tested on: RAW264.7; test: Antiinflammatory activity against LPS-induced mouse RAW264.7 cells assessed as reduction in TNF-alpha level at 30 uM preincubated with compound for 1 hr followed by LPS-induction and measured after 24 hrs by ELISA analysis relative to control; assay type: functional; set-up: scale not given: the % may be the effect or the level left; conditions: time 25 hrs
[14] = tested on: RAW264.7; test: Antiinflammatory activity against LPS-induced mouse RAW264.7 cells assessed as reduction in nitrite level at 30 uM preincubated with compound for 1 hr followed by LPS-induction and measured after 24 hrs by Fluorometric Assay relative to control; assay type: functional; set-up: scale not given: the % may be the effect or the level left; conditions: time 25 hrs
[15] = tested on: RAW264.7; test: Antiinflammatory activity against LPS-induced mouse RAW264.7 cells assessed as reduction in TNF-alpha level at 10 uM preincubated with compound for 1 hr followed by LPS-induction and measured after 24 hrs by ELISA analysis relative to control; assay type: functional; set-up: scale not given: the % may be the effect or the level left; conditions: time 25 hrs
[16] = tested on: RAW264.7; test: Antiinflammatory activity against LPS-induced mouse RAW264.7 cells assessed as reduction in TNF-alpha level at 1 uM preincubated with compound for 1 hr followed by LPS-induction and measured after 24 hrs by ELISA analysis relative to control; assay type: functional; set-up: scale not given: the % may be the effect or the level left; conditions: time 25 hrs
[17] = tested on: RAW264.7; test: Antiinflammatory activity against LPS-induced mouse RAW264.7 cells assessed as reduction in IL-6 level preincubated with compound for 1 hr followed by LPS-induction and measured after 24 hrs by ELISA analysis; assay type: functional, cell-based; conditions: dose 1-30 µM, time 25.0 hrs
[18] = Solubility of compound in PBS at pH 7.4 by LC/MS analysis; assay type: physicochemical
[19] = target: Sigma non-opioid intracellular receptor 1 (Homo sapiens, UniProt Q99720); test: Displacement of [3H]DTG from sigma-1 receptor (unknown origin) assessed as inhibition constant
Chain of Sigma non-opioid intracellular receptor 1 (Q99720 whole entry): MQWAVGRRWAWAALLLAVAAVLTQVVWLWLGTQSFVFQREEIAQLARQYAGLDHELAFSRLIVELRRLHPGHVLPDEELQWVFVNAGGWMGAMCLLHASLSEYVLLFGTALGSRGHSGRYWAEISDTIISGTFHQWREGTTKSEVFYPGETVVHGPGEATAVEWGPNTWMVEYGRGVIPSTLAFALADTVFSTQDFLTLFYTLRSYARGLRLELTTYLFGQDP

[20] = target: 5-hydroxytryptamine receptor 2A (Homo sapiens, UniProt P28223); test: Displacement of [3H]DTG from 5HT2A receptor (unknown origin) assessed as inhibition constant
Chain of 5-hydroxytryptamine receptor 2A (P28223 whole entry): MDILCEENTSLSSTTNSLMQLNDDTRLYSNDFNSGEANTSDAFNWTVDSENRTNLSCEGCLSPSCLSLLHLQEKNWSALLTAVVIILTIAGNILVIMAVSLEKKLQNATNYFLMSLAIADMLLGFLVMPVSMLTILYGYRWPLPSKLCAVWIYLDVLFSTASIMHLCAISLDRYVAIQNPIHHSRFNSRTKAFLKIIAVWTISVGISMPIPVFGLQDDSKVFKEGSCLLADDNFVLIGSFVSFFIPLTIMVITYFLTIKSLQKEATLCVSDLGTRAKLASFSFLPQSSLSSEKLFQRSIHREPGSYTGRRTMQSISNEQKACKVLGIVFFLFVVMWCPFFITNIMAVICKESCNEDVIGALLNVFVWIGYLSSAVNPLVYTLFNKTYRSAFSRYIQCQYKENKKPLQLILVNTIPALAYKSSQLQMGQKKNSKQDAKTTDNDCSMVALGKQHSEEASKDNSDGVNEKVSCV

Chain of 5-hydroxytryptamine receptor 2B (P41595 whole entry): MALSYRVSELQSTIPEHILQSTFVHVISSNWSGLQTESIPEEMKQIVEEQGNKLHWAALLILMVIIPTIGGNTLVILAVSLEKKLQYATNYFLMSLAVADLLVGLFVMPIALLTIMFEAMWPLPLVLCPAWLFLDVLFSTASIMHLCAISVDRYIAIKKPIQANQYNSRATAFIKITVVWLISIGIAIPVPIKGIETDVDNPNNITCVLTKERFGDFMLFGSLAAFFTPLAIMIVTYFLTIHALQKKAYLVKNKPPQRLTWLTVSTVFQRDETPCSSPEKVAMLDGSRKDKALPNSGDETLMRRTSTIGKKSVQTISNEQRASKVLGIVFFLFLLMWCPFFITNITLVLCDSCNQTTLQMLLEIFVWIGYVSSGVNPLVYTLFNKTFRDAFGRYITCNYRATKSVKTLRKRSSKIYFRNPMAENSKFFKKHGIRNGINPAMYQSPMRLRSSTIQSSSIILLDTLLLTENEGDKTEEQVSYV

| Compound | Ki [1] [nM] | Activity [2] [%] | Activity [3] [%] | Activity [4] [%] | viability at 30 µM [5] [%] | Activity [6] [%] | Activity [7] [%] | Activity [8] | Activity [9] | viability at 10 µM [10] [%] | viability at 1 µM [11] [%] | Ki [12] [µM] | Activity [13] [%] | Activity [14] [%] | Activity [15] [%] | Activity [16] [%] | Activity [17] | solubility [18] [µM] | Ki [19] [nM] | Ki [20] [µM] |
| --- | --- | --- | --- | --- | --- | --- | --- | --- | --- | --- | --- | --- | --- | --- | --- | --- | --- | --- | --- | --- |
| Nc1cccc2c1C(=O)N(C1CCCNC1)C2=O (racemic) | 561 | 97 | 83 | 91 | 105 | 82 | 88 | Dose-Dependent Effect | Dose-Dependent Effect | 99 | 100 | 2.2 | 104 | 83 |  |  |  |  |  |  |
| CCN1CCC[C@@H](N2C(=O)c3cccc(N)c3C2=O)C1 |  | 93 |  | 93 | 102 |  |  |  | Dose-Dependent Effect | 104 | 106 |  | 96 | 80 | 97 | 92 |  |  |  |  |
| CC(C)N1CCC[C@@H](N2C(=O)c3cccc(N)c3C2=O)C1 |  | 126 |  | 99 | 90 |  |  |  |  | 99 | 96 |  | 114 | 153 | 110 | 106 |  |  |  |  |
| CN1CCC[C@H](N2C(=O)c3cccc(N)c3C2=O)C1 |  |  |  |  |  |  |  |  | Dose-Dependent Effect | 111 | 110 |  | 106 |  |  |  |  |  |  |  |
| Nc1cccc2c1C(=O)N(C1CCCN(C(=O)C3CC3)C1)C2=O (centres undefined) |  |  |  | 94 | 109 |  |  |  |  | 102 | 99 |  | 100 | 89 | 100 |  |  |  |  |  |
| CC(C)N1CCC[C@H](N2C(=O)c3cccc(N)c3C2=O)C1 |  | 112 |  | 100 | 102 |  |  |  |  | 100 | 100 |  | 115 | 108 | 115 | 107 |  |  |  |  |
| Nc1cccc2c1C(=O)N([C@@H]1CCCNC1)C2=O |  |  | 108 | 87 | 114 | 60 | 72 |  | Dose-Dependent Effect | 103 | 100 |  | 91 | 68 | 95 |  | Dose-Dependent Effect |  |  |  |
| CC(C)N1CCCC(N2C(=O)c3cccc(N)c3C2=O)C1 (racemic) |  | 109 |  | 100 | 95 |  |  |  |  | 100 | 105 |  | 103 | 123 | 109 | 100 |  |  |  |  |
| CCN1CCC[C@H](N2C(=O)c3cccc(N)c3C2=O)C1 |  | 115 |  | 120 | 94 |  |  |  |  | 96 | 100 |  | 109 | 114 | 111 | 114 |  |  |  |  |
| Nc1cccc2c1C(=O)N(C1CCC(=O)NC1=O)C2=O (centres undefined) [POMALIDOMIDE] |  |  |  |  |  |  |  |  |  |  |  |  |  |  |  |  |  | 85 (≈ 23.2 µg/mL) |  |  |
| CN1CCC[C@@H](N2C(=O)c3cccc(N)c3C2=O)C1 |  |  |  | 101 |  |  |  |  |  | 100 | 100 |  |  | 95 | 100 | 108 |  |  |  |  |
| CN1CCCC(N2C(=O)c3cccc(N)c3C2=O)C1 (racemic) |  |  |  | 105 |  |  |  | Dose-Dependent Effect |  | 95 |  |  |  |  | 116 | 111 |  |  |  |  |
| CCN1CCCC(N2C(=O)c3cccc(N)c3C2=O)C1 (racemic) |  | 101 |  | 101 | 97 |  |  |  |  | 99 | 101 |  | 102 | 90 | 112 | 115 |  |  |  |  |
| Nc1cccc2c1C(=O)N(C1CCCN(C(=O)C(F)(F)F)C1)C2=O (centres undefined) |  | 92 |  | 90 | 99 |  |  |  |  | 103 | 103 |  | 94 | 100 |  |  |  |  |  |  |
| CC(=O)N1CCCC(N2C(=O)c3cccc(N)c3C2=O)C1 (centres undefined) |  | 95 | 111 | 88 | 101 | 89 | 106 | Dose-Dependent Effect | Dose-Dependent Effect | 103 | 102 | 5.2 | 86 | 81 | 86 | 95 |  |  | 2400 | 5.2 |
| Nc1cccc2c1C(=O)N([C@H]1CCCNC1)C2=O |  | 110 |  |  | 103 | 94 | 102 |  | Dose-Dependent Effect | 102 | 104 |  | 94 | 83 | 94 |  | Dose-Dependent Effect |  |  |  |
